Measurements from patent US6653321B1, “Naphthylsulfonic acids and related compounds as glucose uptake agonists” (Telik, Inc., priority 1999, dated 2003).

Target: T1, β-kinase domain of the human insulin receptor (CKD) (Homo sapiens, UniProt P06213)
T1 construct: The complete β-kinase domain of the human insulin receptor (CKD); made in house
Assay: 32P-Cytoplasmic Kinase Domain (CKD) autophosphorylation assay
Type: biochemical
Conditions: 32P incorporated into CKD band, percentage of the vehicle (DMSO) level; 10 minutes at room temperature; compound concentration not given
Protocol: The complete β-kinase domain of the human insulin receptor (CKD) was expressed in, and purified from, baculovirus. CKD (4.0 μg/mL), in a solution of 50 mM Tris.HCl, 2 mM MnCl2, 10 mM MgCl2 (50 μl final volume), was combined with […] ATP, and 5 μCi ^32P-ATP (3000 Ci/mmol.). A test compound, or the vehicle (DMSO), was added to a final DMSO concentration of 1%. The mixture was incubated for 10 minutes at room temperature. The reaction was terminated by the addition of 10 μl of 200 mM EDTA. A 30 μl volume was removed, mixed with 5 μl of 6×Laemmeli sodium dodecyl sulfate (SDS) treatment buffer, and heated to 94° C. for 5 minutes. A 20 μl aliquot was then run on an SDS-PAGE gel. The radioactivity incorporated into the CKD band is quantified by phosphorimaging of the gel, or scintillation counting of the excised bands.
The potency of a compound for increasing phosphorylation is expressed as a percentage of the vehicle level.

T1 sequence (P06213 980-1382 limits assumed): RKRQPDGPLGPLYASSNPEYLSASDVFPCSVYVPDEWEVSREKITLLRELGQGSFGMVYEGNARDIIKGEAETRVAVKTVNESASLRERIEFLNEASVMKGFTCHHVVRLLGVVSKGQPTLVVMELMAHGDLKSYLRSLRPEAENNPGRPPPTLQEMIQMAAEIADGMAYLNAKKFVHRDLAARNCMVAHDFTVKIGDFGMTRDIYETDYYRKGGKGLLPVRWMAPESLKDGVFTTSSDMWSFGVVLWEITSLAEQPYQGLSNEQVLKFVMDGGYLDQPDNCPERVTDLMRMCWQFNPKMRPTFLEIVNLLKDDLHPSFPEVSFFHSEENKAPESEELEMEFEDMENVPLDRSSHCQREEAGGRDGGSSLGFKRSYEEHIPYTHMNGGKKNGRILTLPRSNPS

Row | SMILES | Activity (% Control)
1 | O=C(Cc1cccc(Cl)c1)Nc1cc(C(=O)Nc2cccc3cc(S(=O)(=O)O)ccc23)cc(C(=O)Nc2cccc3cc(S(=O)(=O)O)ccc23)c1 [Compound 44, 5-({3-[2-(3-chlorophenyl)acetylamino]-5-[N-(6-sulfonaphthyl)carbamoyl]phenyl}carbonylamino)naphthalene-2-sulfonic acid] | 124.8 % Control
2 | Cc1cc(C)c(S(=O)(=O)Nc2cc(C(=O)Nc3cccc4cc(S(=O)(=O)O)ccc34)cc(C(=O)Nc3cccc4cc(S(=O)(=O)O)ccc34)c2)c(C)c1 [Compound 55, 5-[(3-{[(2,4,6-trimethylphenyl)sulfonyl]amino}-5-[N-(6-sulfonaphthyl)carbamoyl]phenyl)carbonylamino]naphthalene-2-sulfonic acid] | 121.6 % Control
3 | Cc1ccc(CC(=O)Nc2cc(C(=O)Nc3cccc4cc(S(=O)(=O)O)ccc34)cc(C(=O)Nc3cccc4cc(S(=O)(=O)O)ccc34)c2)cc1 [Compound 43, 5-({3-[2-(4-methylphenyl)acetylamino]-5-[N-(6-sulfonaphthyl)carbamoyl]phenyl}carbonylamino)naphthalene-2-sulfonic acid] | 124.2 % Control
4 | O=C(O)c1cccc(C(=O)Nc2cc(C(=O)Nc3cccc4cc(S(=O)(=O)O)ccc34)cc(C(=O)Nc3cccc4cc(S(=O)(=O)O)ccc34)c2)c1 [Compound 30, 3-(N-{3,5-bis[N-(6-sulfonaphthyl)carbamoyl]phenyl}carbamoyl)benzoic acid] | 84.1 % Control
5 | O=C(Nc1cccc2cc(S(=O)(=O)O)ccc12)c1cc(NC(=O)c2cccc3ccccc23)cc(C(=O)Nc2cccc3cc(S(=O)(=O)O)ccc23)c1 [Compound 25, 5-({3-(1-naphthylcarbonylamino)-5-[N-(6-sulfonaphthyl)carbamoyl]phenyl}carbonylamino)naphthalene-2-sulfonic acid] | 83.7 % Control
6 | COc1ccc(CC(=O)Nc2cc(C(=O)Nc3cccc4cc(S(=O)(=O)O)ccc34)cc(C(=O)Nc3cccc4cc(S(=O)(=O)O)ccc34)c2)cc1 [Compound 41, 5-({3-[2-(4-methoxyphenyl)acetylamino]-5-[N-(6-sulfonaphthyl)carbamoyl]phenyl}carbonylamino)naphthalene-2-sulfonic acid] | 136.6 % Control
7 | COc1cccc(NC(=O)Nc2cc(C(=O)Nc3cccc4cc(S(=O)(=O)O)ccc34)cc(C(=O)Nc3cccc4cc(S(=O)(=O)O)ccc34)c2)c1 [Compound 64, 5-[(3-{[(3-methoxyphenyl)amino]carbonylamino}-5-[N-(6-sulfonaphthyl)carbamoyl]phenyl)carbonylamino]naphthalene-2-sulfonic acid] | 58.3 % Control
8 | O=C(Nc1cc(C(=O)Nc2cccc3cc(S(=O)(=O)O)ccc23)cc(C(=O)Nc2cccc3cc(S(=O)(=O)O)ccc23)c1)c1ccc(F)cc1 [Compound 12, 5-({3-[(4-fluorophenyl)carbonylamino]-5-[N-(6-sulfonaphthyl)carbamoyl]phenyl}carbonylamino)naphthalene-2-sulfonic acid] | 88.6 % Control
9 | O=C(Nc1cccc2cc(S(=O)(=O)O)ccc12)c1cc(NS(=O)(=O)c2cccc3ccccc23)cc(C(=O)Nc2cccc3cc(S(=O)(=O)O)ccc23)c1 [Compound 54, 5-({3-[(1-naphthylsulfonyl)amino]-5-[N-(6-sulfonaphthyl)carbamoyl]phenyl}carbonylamino)naphthalene-2-sulfonic acid] | 46.5 % Control
10 | O=C(O)c1ccc(C(=O)Nc2cc(C(=O)Nc3cccc4cc(S(=O)(=O)O)ccc34)cc(C(=O)Nc3cccc4cc(S(=O)(=O)O)ccc34)c2)cc1 [Compound 31, 4-(N-{3,5-bis[N-(6-sulfonaphthyl)carbamoyl]phenyl}carbamoyl)benzoic acid] | 159.2 % Control
11 | O=C(COc1ccccc1)Nc1cc(C(=O)Nc2cccc3cc(S(=O)(=O)O)ccc23)cc(C(=O)Nc2cccc3cc(S(=O)(=O)O)ccc23)c1 [Compound 38, 5-({3-(2-phenoxyacetylamino)-5-[N-(6-sulfonaphthyl)carbamoyl]phenyl}carbonylamino)naphthalene-2-sulfonic acid] | 84.7 % Control
12 | O=C(Nc1cc(C(=O)Nc2cccc3cc(S(=O)(=O)O)ccc23)cc(C(=O)Nc2cccc3cc(S(=O)(=O)O)ccc23)c1)Nc1ccccc1Cl [Compound 59, 5-[(3-{[(2-chlorophenyl)amino]carbonylamino}-5-[N-(6-sulfonaphthyl)carbamoyl]phenyl)carbonylamino]naphthalene-2-sulfonic acid] | 120.4 % Control
13 | Cc1ccc(NC(=O)CCC(=O)Nc2cc(C(=O)Nc3cccc4cc(S(=O)(=O)O)ccc34)cc(C(=O)Nc3cccc4cc(S(=O)(=O)O)ccc34)c2)cc1 [Compound 42, 5-[(3-{3-[N-(4-methylphenyl)carbamoyl]propanoylamino}-5-[N-(6-sulfonaphthyl)carbamoyl]phenyl)carbonylamino]naphthalene-2-sulfonic acid] | 116.7 % Control
14 | N[C@@H](CC(=O)O)C(=O)Nc1cc(C(=O)Nc2cccc3cc(S(=O)(=O)O)ccc23)cc(C(=O)Nc2cccc3cc(S(=O)(=O)O)ccc23)c1 [Compound 26, (3S)-3-amino-3-(N-{3,5-bis[N-(6-sulfonaphthyl)carbamoyl]phenyl}carbamoyl)propanoic acid] | 91.4 % Control
15 | O=C(Nc1cccc2cc(S(=O)(=O)O)ccc12)c1cc(NC(=O)c2c(Cl)ccc(Cl)c2C(=O)O)cc(C(=O)Nc2cccc3cc(S(=O)(=O)O)ccc23)c1 [Compound 20] | 84.9 % Control
16 | O=C(Nc1cccc2cc(S(=O)(=O)O)ccc12)c1cc(NS(=O)(=O)Cc2ccccc2)cc(C(=O)Nc2cccc3cc(S(=O)(=O)O)ccc23)c1 [Compound 56, 5-[(5-{[benzylsulfonyl]amino}-3-[N-(6-sulfonaphthyl)carbamoyl]phenyl)carbonylamino]naphthalene-2-sulfonic acid] | 102.4 % Control
17 | O=C(Nc1cccc2cc(S(=O)(=O)O)ccc12)c1cc(NS(=O)(=O)c2ccc(F)cc2)cc(C(=O)Nc2cccc3cc(S(=O)(=O)O)ccc23)c1 [Compound 51, 5-[(3-{[(4-fluorophenyl)sulfonyl]amino}-5-[N-(6-sulfonaphthyl)carbamoyl]phenyl)carbonylamino]naphthalene-2-sulfonic acid] | 133.0 % Control
18 | O=C(Nc1ccc(Cl)cc1)Nc1cc(C(=O)Nc2cccc3cc(S(=O)(=O)O)ccc23)cc(C(=O)Nc2cccc3cc(S(=O)(=O)O)ccc23)c1 [Compound 58, 5-[(3-{[(4-chlorophenyl)amino]carbonylamino}-5-[N-(6-sulfonaphthyl)carbamoyl]phenyl)carbonylamino]naphthalene-2-sulfonic acid] | 106.4 % Control
19 | O=C(Nc1cccc2cc(S(=O)(=O)O)ccc12)c1cc(NS(=O)(=O)c2ccc3ccccc3c2)cc(C(=O)Nc2cccc3cc(S(=O)(=O)O)ccc23)c1 [Compound 49, 5-({3-[(2-naphthylsulfonyl)amino]-5-[N-(6-sulfonaphthyl)carbamoyl]phenyl}carbonylamino)naphthalene-2-sulfonic acid] | 109.3 % Control
20 | COc1ccc(NC(=O)Nc2cc(C(=O)Nc3cccc4cc(S(=O)(=O)O)ccc34)cc(C(=O)Nc3cccc4cc(S(=O)(=O)O)ccc34)c2)cc1 [Compound 65, 5-[(3-{[(4-methoxyphenyl)amino]carbonylamino}-5-[N-(6-sulfonaphthyl)carbamoyl]phenyl)carbonylamino]naphthalene-2-sulfonic acid] | 85.9 % Control
21 | COc1ccccc1NC(=O)Nc1cc(C(=O)Nc2cccc3cc(S(=O)(=O)O)ccc23)cc(C(=O)Nc2cccc3cc(S(=O)(=O)O)ccc23)c1 [Compound 63, 5-[(3-{[(2-methoxyphenyl)amino]carbonylamino}-5-[N-(6-sulfonaphthyl)carbamoyl]phenyl)carbonylamino]naphthalene-2-sulfonic acid] | 94.4 % Control
22 | O=C(Nc1cccc2cc(S(=O)(=O)O)ccc12)c1cc(NS(=O)(=O)c2ccccc2)cc(C(=O)Nc2cccc3cc(S(=O)(=O)O)ccc23)c1 [Compound 48, 5-({3-[(phenylsulfonyl)amino]-5-[N-(6-sulfonaphthyl)carbamoyl]phenyl}carbonylamino)naphthalene-2-sulfonic acid] | 114.2 % Control
23 | O=C(Nc1cccc2cc(S(=O)(=O)O)ccc12)c1cc(NS(=O)(=O)c2ccc(Cl)cc2)cc(C(=O)Nc2cccc3cc(S(=O)(=O)O)ccc23)c1 [Compound 50, 5-[(3-{[(4-chlorophenyl)sulfonyl]amino}-5-[N-(6-sulfonaphthyl)carbamoyl]phenyl)carbonylamino]naphthalene-2-sulfonic acid] | 123.8 % Control
24 | O=C(Nc1cccc2cc(S(=O)(=O)O)ccc12)c1cc(NC(=O)c2ccco2)cc(C(=O)Nc2cccc3cc(S(=O)(=O)O)ccc23)c1 [Compound 34, 5-({3-(2-furylcarbonylamino)-5-[N-(6-sulfonaphthyl)carbamoyl]phenyl}carbonylamino)naphthalene-2-sulfonic acid] | 119.5 % Control
25 | O=C(Nc1cccc2cc(S(=O)(=O)O)ccc12)c1cc(NC(=O)C2CCCCC2)cc(C(=O)Nc2cccc3cc(S(=O)(=O)O)ccc23)c1 [Compound 33, 5-({3-(cyclohexylcarbonylamino)-5-[N-(6-sulfonaphthyl)carbamoyl]phenyl}carbonylamino)naphthalene-2-sulfonic acid] | 122.5 % Control
